{"source": "patent US8623110B2", "about": "“Protein and isolated or purified amino acid product containing compositions and uses thereof” (Archer Daniels Midland Company, priority 2007, dated 2014)", "format_in_all_cases": "in vivo", "key": {"[1]": {"system": "weeds", "experiment": "Pre-emergent herbicide efficacy, percent weed cover on bare soil", "conditions": "compared to the untreated control (Table 13)", "procedure": "Herbicide efficacy of the fertilizers was evaluated with Granular Lysine (LSG), Liquid Lysine (LSL), and Ronstar G by applying them to 3 replications of 1 m×1 m plots which also included an untreated control. Plots were located in an area of known weed infestation problems. Plots were prepared prior to treatment application by rototilling and applying 3 glyphosate applications to clear up pre-existing weeds and the test was initiated with 0 percent weed in all plots. On approximately monthly intervals percent weed cover ratings were taken. All data was subject to statistical analysis and significant means were determined."}, "[2]": {"system": "'Floratam' St. Augustinegrass", "experiment": "Fertilizer efficacy on St. Augustinegrass (quality, color, clipping weight)", "conditions": "St. Augustinegrass sites 1 and 2; LSG at high rate (Tables 4-7)", "procedure": "(§1) In another embodiment, the fertilizers of the various embodiments described herein were compared to industry standards for efficacy and phytotoxicity on St. Augustinegrass and bermudagrass. In another embodiment the experimental fertilizers were evaluated for their efficacy as a pre-emergent herbicide compared to an industry standard.\nEfficacy of the fertilizers on the St. Augustinegrass Site was evaluated by applying treatments 1-8 to 4 replications of ‘Floratam’ St. Augustinegrass. Plot size was 1 m×2 m set up as a randomized complete block. Initially Nature Safe was applied as a granular, while ammonium sulfate and remaining products were applied as split liquid treatments sprayed out using a CO2 boom sprayer set to deliver a volume of 1 gallon/1000 ft^2. After six weeks all 10 treatments were applied to the 4 replications of ‘Floratam’. Products 3-10 were again applied as split liquid treatments using a CO2 boom sprayer. Split treatments were re-applied approximately 2 weeks later. Plots were mowed at 3.0 inches before fertilizer application. Irrigation (0.15 inch) was applied following each application. Clipping samples were taken approximately monthly for dry weight (grams) determination. […] All data was subject to statistical analysis and significant means were determined."}, "[3]": {"system": "bermudagrass", "experiment": "Fertilizer efficacy on bermudagrass (quality, color, clipping weight)", "conditions": "LSG at high rate (Tables 8 and 9)", "procedure": "as §1\nEfficacy of the fertilizers on the Bermudagrass Site was evaluated by applying, treatments 1-8 to 4 replications of 1 m×2 m bermudagrass plots set up as a randomized complete block. Nature Safe was applied as a granular, while ammonium sulfate and remaining products were applied as split liquid treatments sprayed out using a CO2 boom sprayer set to deliver a volume of 1 gallon/1000 ft^2. Turfgrass ratings were taken to ensure turf quality/color uniformity.\nAfter 6 weeks all 10 treatments were applied to 4 replications of bermudagrass plots. Products 3-10 were again applied as split liquid treatments sprayed out using a CO2 boom sprayer. Split treatments were re-applied approximately 2 weeks later. Plots were mowed at 0.5 inches before fertilizer application. Irrigation (0.15 inch) was applied following application. Clipping samples were taken approximately monthly for dry weight (grams) determination. […] All data was subject to statistical analysis and significant means were determined."}}, "data": [{"smiles": "Cl.NCCCC[C@H](N)C(=O)O", "note": "[LSG, L-lysine monohydrochloride]", "values": [{"measurement": "weed ratings (percent weed cover)", "setting": "[1]", "result": "not significantly different"}, {"measurement": "turfgrass quality and color (scale of 1-10)", "setting": "[2]", "result": "highest numerical average on many rating dates"}, {"measurement": "turfgrass quality and color (scale of 1-10)", "setting": "[3]", "result": "best numerical turfgrass scores on most dates"}]}]}
